# Laboratory results published in article PMC3961306, “Comparison of the Cancer Gene Targeting and Biochemical Selectivities of All Targeted Kinase Inhibitors Approved for Clinical Use” (PLoS ONE, 2014).
# Assays:
# Test in all cases: Kinase profiling in a biochemical assay panel (mobility shift assays and ELISA), %-inhibition at 1 μM; selectivity entropy
# [1] = target: panel of more than 300 wild-type and mutant kinases (313 kinase panel) (Homo sapiens, UniProt O00311); conditions: kinase CDC7/ASK; 1 μM compound
# [2] = target: panel of more than 300 wild-type and mutant kinases (313 kinase panel) (Homo sapiens, UniProt Q14012)
# [3] = target: panel of more than 300 wild-type and mutant kinases (313 kinase panel) (Homo sapiens, UniProt P36894); conditions: kinase BMPR1A; 1 μM compound
# [4] = target: panel of more than 300 wild-type and mutant kinases (313 kinase panel) (Homo sapiens, UniProt P54646)
# [5] = target: panel of more than 300 wild-type and mutant kinases (313 kinase panel) (Homo sapiens, UniProt P31751)
# [6] = target: panel of more than 300 wild-type and mutant kinases (313 kinase panel) (Homo sapiens, UniProt P50750); conditions: kinase CDK9/CycT1; 1 μM compound
# [7] = target: panel of more than 300 wild-type and mutant kinases (313 kinase panel) (Homo sapiens, UniProt Q08345); conditions: kinase DDR1; compound at 1 μM
# [8] = target: T1, panel of more than 300 wild-type and mutant kinases (313 kinase panel) (Homo sapiens, UniProt Q9HBY8); conditions: kinase SGK2; 1 μM
# T1 sequence (Q9HBY8 1-367): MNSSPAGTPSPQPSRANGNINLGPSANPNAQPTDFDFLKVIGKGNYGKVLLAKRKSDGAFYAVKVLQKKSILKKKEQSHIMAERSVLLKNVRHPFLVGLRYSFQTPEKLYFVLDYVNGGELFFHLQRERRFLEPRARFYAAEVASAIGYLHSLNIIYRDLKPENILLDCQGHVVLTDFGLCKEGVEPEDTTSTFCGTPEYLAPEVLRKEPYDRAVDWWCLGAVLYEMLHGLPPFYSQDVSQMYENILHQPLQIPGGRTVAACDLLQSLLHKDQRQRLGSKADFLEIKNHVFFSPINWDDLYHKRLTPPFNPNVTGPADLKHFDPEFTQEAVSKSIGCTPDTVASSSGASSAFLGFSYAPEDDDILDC
# [9] = target: panel of more than 300 wild-type and mutant kinases (313 kinase panel) (Homo sapiens, UniProt P17948); conditions: kinase FLT1; compound at 1 μM
# [10] = target: panel of more than 300 wild-type and mutant kinases (313 kinase panel) (Homo sapiens, UniProt Q86V86); conditions: kinase PIM3; 1 μM
# [11] = target: panel of more than 300 wild-type and mutant kinases (313 kinase panel) (Homo sapiens, UniProt P49759); conditions: kinase CLK1; 1 μM compound
# [12] = target: panel of more than 300 wild-type and mutant kinases (313 kinase panel) (Homo sapiens, UniProt P53779); conditions: kinase JNK3; compound at 1 μM
# [13] = target: panel of more than 300 wild-type and mutant kinases (313 kinase panel) (Homo sapiens, UniProt Q9H4A3); conditions: kinase WNK1; compound at 1 μM
# [14] = kinase AMPKα2/β1/γ1, 1 μM compound
# panel of more than 300 wild-type and mutant kinases (313 kinase panel) (Homo sapiens, UniProt P49759), sequence (P49759 whole entry, change not shown): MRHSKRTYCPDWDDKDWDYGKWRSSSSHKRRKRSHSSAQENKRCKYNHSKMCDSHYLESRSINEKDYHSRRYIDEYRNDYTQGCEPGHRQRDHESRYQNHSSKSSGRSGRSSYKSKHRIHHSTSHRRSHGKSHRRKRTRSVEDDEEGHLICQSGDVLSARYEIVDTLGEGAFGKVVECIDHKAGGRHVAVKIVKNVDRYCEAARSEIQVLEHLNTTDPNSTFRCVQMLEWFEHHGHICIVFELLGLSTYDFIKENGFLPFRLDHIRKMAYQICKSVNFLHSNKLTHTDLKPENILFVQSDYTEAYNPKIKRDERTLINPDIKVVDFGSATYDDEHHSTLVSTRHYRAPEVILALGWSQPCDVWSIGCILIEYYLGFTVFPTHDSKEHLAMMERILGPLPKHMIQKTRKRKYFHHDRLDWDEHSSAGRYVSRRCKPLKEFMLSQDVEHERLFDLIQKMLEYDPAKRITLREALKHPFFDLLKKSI
# panel of more than 300 wild-type and mutant kinases (313 kinase panel) (Homo sapiens, UniProt P53779), sequence (P53779 whole entry, change not shown): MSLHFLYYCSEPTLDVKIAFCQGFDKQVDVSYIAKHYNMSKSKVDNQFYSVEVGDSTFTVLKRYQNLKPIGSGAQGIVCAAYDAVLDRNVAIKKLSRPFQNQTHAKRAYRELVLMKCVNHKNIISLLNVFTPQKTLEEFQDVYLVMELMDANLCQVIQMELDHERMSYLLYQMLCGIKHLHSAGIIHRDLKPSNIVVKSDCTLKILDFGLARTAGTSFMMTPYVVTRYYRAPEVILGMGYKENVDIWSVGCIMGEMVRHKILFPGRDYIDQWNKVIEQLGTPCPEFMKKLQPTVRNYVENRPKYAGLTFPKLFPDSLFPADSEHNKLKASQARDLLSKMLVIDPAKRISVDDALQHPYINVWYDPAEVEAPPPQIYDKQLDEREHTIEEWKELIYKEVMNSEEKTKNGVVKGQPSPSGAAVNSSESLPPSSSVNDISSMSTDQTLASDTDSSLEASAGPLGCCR
# panel of more than 300 wild-type and mutant kinases (313 kinase panel) (Homo sapiens, UniProt P31751), sequence (P31751 whole entry, change not shown): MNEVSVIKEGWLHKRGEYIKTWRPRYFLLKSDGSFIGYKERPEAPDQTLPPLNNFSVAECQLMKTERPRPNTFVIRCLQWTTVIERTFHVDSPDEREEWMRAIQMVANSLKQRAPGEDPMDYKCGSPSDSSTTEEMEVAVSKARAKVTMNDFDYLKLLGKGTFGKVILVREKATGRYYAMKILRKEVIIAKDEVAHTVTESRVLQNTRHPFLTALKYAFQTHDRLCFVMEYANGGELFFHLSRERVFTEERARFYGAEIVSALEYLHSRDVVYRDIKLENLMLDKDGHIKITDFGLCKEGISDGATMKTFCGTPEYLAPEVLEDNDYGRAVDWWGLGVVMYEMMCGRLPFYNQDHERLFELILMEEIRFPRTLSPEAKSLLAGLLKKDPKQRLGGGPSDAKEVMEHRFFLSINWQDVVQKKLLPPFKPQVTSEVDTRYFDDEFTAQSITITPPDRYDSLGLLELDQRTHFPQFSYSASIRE
# panel of more than 300 wild-type and mutant kinases (313 kinase panel) (Homo sapiens, UniProt Q9H4A3), sequence (Q9H4A3 whole entry, change not shown): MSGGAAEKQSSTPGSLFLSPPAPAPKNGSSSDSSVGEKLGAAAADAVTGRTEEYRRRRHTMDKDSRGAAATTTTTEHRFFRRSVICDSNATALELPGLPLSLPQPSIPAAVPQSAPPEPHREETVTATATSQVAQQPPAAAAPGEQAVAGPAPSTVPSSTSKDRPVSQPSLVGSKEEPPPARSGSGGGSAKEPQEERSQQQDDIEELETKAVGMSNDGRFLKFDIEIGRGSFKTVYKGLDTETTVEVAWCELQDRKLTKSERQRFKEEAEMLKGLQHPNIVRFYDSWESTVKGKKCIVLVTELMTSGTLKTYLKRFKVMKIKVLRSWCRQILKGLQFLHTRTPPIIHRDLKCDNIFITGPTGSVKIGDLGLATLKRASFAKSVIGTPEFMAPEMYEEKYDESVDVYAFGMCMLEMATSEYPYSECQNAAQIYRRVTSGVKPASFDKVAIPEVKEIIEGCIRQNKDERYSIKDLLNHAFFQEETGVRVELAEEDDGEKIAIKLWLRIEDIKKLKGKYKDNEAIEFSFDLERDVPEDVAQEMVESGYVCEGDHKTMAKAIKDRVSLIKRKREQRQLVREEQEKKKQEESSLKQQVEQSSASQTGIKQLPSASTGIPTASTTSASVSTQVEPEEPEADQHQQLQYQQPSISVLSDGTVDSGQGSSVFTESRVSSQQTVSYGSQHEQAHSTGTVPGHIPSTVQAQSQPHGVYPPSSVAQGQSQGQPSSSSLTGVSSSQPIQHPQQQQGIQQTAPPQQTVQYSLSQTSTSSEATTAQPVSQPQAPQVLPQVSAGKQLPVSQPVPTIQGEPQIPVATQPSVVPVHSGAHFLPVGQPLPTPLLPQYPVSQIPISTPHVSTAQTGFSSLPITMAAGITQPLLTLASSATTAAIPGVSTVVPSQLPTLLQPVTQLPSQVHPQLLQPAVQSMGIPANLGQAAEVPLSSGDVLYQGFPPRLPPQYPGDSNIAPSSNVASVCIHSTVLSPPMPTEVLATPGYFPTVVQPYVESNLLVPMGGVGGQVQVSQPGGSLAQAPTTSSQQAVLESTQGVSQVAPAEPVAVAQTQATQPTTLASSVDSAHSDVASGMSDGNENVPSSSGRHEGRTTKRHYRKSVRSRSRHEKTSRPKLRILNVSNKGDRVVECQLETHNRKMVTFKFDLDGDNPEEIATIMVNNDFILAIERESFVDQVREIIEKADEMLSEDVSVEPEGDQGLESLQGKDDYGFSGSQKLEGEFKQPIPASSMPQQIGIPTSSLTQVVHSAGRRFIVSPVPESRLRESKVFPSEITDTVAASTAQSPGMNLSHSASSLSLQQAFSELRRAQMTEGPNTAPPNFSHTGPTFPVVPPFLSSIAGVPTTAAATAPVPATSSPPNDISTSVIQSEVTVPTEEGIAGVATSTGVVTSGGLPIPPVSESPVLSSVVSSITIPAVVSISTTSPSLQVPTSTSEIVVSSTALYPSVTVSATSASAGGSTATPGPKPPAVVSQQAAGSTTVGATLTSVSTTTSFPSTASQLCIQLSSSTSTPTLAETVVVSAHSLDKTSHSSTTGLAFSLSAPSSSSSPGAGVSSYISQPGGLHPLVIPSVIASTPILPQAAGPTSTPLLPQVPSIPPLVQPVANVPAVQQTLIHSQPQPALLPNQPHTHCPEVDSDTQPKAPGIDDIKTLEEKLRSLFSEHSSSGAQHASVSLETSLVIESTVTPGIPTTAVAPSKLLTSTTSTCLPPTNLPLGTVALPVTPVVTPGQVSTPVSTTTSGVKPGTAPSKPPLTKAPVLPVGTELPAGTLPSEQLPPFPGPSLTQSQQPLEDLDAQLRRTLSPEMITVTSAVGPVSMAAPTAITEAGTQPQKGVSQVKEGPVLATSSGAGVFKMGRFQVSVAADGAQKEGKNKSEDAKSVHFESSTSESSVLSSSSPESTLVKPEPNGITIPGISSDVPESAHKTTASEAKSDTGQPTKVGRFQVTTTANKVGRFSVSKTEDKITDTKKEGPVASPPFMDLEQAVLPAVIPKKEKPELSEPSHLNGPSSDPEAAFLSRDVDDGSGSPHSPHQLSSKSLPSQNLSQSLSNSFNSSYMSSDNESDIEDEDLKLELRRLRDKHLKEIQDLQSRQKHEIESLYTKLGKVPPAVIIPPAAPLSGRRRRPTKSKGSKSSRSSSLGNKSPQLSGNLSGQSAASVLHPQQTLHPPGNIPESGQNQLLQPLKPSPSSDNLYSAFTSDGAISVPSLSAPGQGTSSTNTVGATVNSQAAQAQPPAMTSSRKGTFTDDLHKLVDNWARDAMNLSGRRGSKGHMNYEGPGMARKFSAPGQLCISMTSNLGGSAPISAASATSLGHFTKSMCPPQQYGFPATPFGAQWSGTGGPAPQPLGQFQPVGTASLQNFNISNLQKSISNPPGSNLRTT
Compound,"%-inhibition, CDC7/ASK [1] [%]","%-inhibition, CaMK1α ([2]; 1 µM) [%]","%-inhibition, BMPR1A [3] [%]","%-inhibition, AMPKα2/β1/γ1 [4, 14] [%]","%-inhibition, AKT2 ([5]; 1 µM) [%]","%-inhibition, CDK9/CycT1 [6] [%]",%-inhibition of DDR1 [7] [%],%-inhibition of SGK2 [8] [%],%-inhibition of FLT1 [9] [%],%-inhibition of PIM3 [10] [%],"%-inhibition, CLK1 [11] [%]",%-inhibition of JNK3 [12] [%],%-inhibition of WNK1 [13] [%],"%-inhibition, CaMK1α ([2]; kinase CaMK1α, 1 μM compound) [%]","%-inhibition, AKT2 ([5]; kinase AKT2, 1 μM compound) [%]","%-inhibition, AMPKα2/β1/γ1 ([4]; 1 µM) [%]"
COc1cc(Nc2c(C#N)cnc3cc(OCCCN4CCN(C)CC4)c(OC)cc23)c(Cl)cc1Cl [bosutinib],-5.36,9,1.74,10,-2.57,-4.22,97,-3.37,,,,,,,,
CC(C)(C)c1nc(-c2cccc(NS(=O)(=O)c3c(F)cccc3F)c2F)c(-c2ccnc(N)n2)s1 [dabrafenib],-6,,17,,,,96,-7.58,62,9,7,5.59,1.14,,,
Cc1nc(Nc2ncc(C(=O)Nc3c(C)cccc3Cl)s2)cc(N2CCN(CCO)CC2)n1 [dasatinib],3,,,,,-0.25,,6,,-1.78,,,,1.38,,
Cc1ccc(Nc2nccc(N(C)c3ccc4c(C)n(C)nc4c3)n2)cc1S(N)(=O)=O [pazopanib],-3.46,,-1.7,0.826,,31,97,-3.44,100,-4,7.57,,-3.67,5.59,-2,
Cc1ccc(C(=O)Nc2ccc(CN3CCN(C)CC3)c(C(F)(F)F)c2)cc1C#Cc1cnc2cccnn12 [ponatinib],-7.45,,6.48,89,,16,,12,101,,,,,,,
N#CC[C@H](C1CCCC1)n1cc(-c2ncnc3[nH]ccc23)cn1 [ruxolitinib],5.36,,5.7,,,-3.29,,-1.48,11,-9,33,-3,-4,,-3.68,7.49
CCN(CC)CCNC(=O)c1c(C)[nH]c(/C=C2\C(=O)Nc3ccc(F)cc32)c1C [sunitinib],,,,,,,,,98,21,,,,,,
CO[C@H]1C[C@@H]2CC[C@@H](C)[C@@](O)(O2)C(=O)C(=O)N2CCCC[C@H]2C(=O)O[C@H]([C@H](C)C[C@@H]2CC[C@@H](OC(=O)C(C)(CO)CO)[C@H](OC)C2)CC(=O)[C@H](C)/C=C(\C)[C@@H](O)[C@@H](OC)C(=O)[C@H](C)C[C@H](C)/C=C/C=C/C=C/1C [temsirolimus],-6,,-9,-4,,-3.29,-5.36,-2.66,-2,-1.31,,-1.22,-4.27,-6.61,-1.77,
COc1cc2c(Nc3ccc(Br)cc3F)ncnc2cc1OCC1CCN(C)CC1 [vandetanib],-6.41,,46,4.74,,,100,-2,,-6,14,-0.407,-2.36,-3,-1.77,
